Common to all, as to format: cell-based, human
Experiment [1] relates to lung carcinoma cells (A549). Description: intracellular Ca^2+, Fluo-4, real time confocal microscopy. Particulars: for effect of channel blocker on first, EGTA insensitive Ca^2+ peak in response to HAMLET: 30 minutes pretreatment. The method, then:
To examine if HAMLET modulates ion channel activity in tumor cells, we first quantified changes in intracellular Ca^2+ and K^+. Lung carcinoma cells were first preloaded with the Fluo-4 Ca^2+ fluorophore Fluo-, exposed to HAMLET (35 μM) and examined by real time confocal microscopy for changes in fluorescence intensity (FIG. 1A). The Ca^2+ ionophore A23187, which acts as a Ca^2+ shuttle across cell membranes, was used as a positive control (Abbott et al., 1979, Antimicrobial Agents and Chemotherapy 16, 808-812).
To distinguish Ca^2+ mobilization from intracellular stores from the influx of extracellular Ca^2+, EGTA was then added to the cell medium. […] K^+ fluxes across tumor cell membranes were subsequently quantified under the same experimental conditions, using the fluorophore FLUXOR™, which fluoresces after thallium has entered cells through K^+ channels.
To further characterize ion channel activation by HAMLET, carcinoma cells were pretreated with defined channel blockers. Amiloride is a sodium channel inhibitor with effects on mechanosensitive channels, barium chloride (BaCl2) is a general K^+ channel inhibitor, gadolinium chloride (GdCl3) inhibits mechanosensitive channels, Ruthenium red is a general Ca^2+ inhibitor and tetrandrine inhibits large conductance, Ca^2+ activated K^+ channels. The carcinoma cells were preincubated with Fluo-4 as described above, pretreated with each of the channel inhibitors for 30 minutes, exposed to HAMLET (35 μM) and examined by real time confocal imaging. Furthermore, cells treated with EGTA were compared to cells with intact extracellular Ca^2+ levels, to distinguish the early peak from the subsequent influx of Ca^2+ (FIG. 1B, Table in FIG. 8).

Experiment [2] deals with A549 lung carcinoma cells. As to the kind of experiment: global transcriptional response, whole genome arrays (Affymetrix). The method, then:
For the microarray analysis with ion channel inhibitors, 200,000 A549 cells/well were allowed to adhere overnight on a 6-well plate. After 1 hour of HAMLET treatment, the cells were lysed and RNA was extracted using the RNeasy Mini Kit (QIAGEN). The samples were sent to AROS Applied Biotechnology (Århus, Denmark) for analysis. Data was preprocessed using RMA implemented in the free software packages “affy” as provided by R and Bioconductor (<www.r-project.org>). Differentially expressed genes were identified using empirically Bayes adjusted t-statistics and characterized using the Functional Annotation Clustering Tool in the Database for Annotation, Visualization and Integrated Discovery (DAVID), (Dennis et al., 2003 Genome Biology 4(5): P3) and Ingenuity Pathway Analysis (Ingenuity Systems). All microarray data were registered into NCBI's Gene Expression Omnibus (GEO) database (<www.ncbi.nlm.nih.gov/projects/geo>) with accession numbers GSE23772.
To understand the mechanisms of carcinoma cell death and the contribution of ion channel activation, the global transcriptional response to HAMLET was examined, using whole genome arrays. A549 lung carcinoma cells were exposed to HAMLET (21 μM) for one hour and cells pretreated with amiloride were compared to cells in medium alone. […] An unbiased global overview of transcription was obtained by performing a hierarchical clustering of the top 3000 genes by variance and was visualized in a heatmap (FIG. 2D and FIG. 13). Genes with empirical Bayes adjusted p-values <0.05 and log 2 fold changes >1 were considered differentially expressed and were functionally characterized using Database for Annotation, Visualization and Integrated Discovery, (Dennis et al., supra, 2003) and Ingenuity Pathway Analysis.
In total 12 RNA samples were generated (triplicate of control, oleic Acid, HAMLET, and oleate-treated) and hybridized to Affymetrix Whole Genome microarrays U219. […] For statistical analysis normalized data were linear model fitted and Empirical Bayesian analysis, coupled with p-value adjustment, performed.

Experiment [3] relates to p38, HSP27, ERK1/2 in kidney and lung carcinoma cells. Description: MAPK phosphorylation (phospho-MAPK antibody arrays, Western blot). The conditions noted are these: for effect of ion channel inhibitor on suppression of p-ERK1/2 phosphorylation by HAMLET / effect of ion channel inhibitor on HAMLET-induced p38 phosphorylation: lung carcinoma cells; for effect of ion channel inhibitor on HAMLET-induced p38 phosphorylation: 30 minutes pretreatment, HAMLET 21 and 35 μM, 1 hour; for phosphorylation of p38: Western blot. An excerpt: Equal volumes of lysates were separated by SDS-PAGE on 4-12% Bis-Tris gels (Invitrogen) and blotted onto PVDF membranes. For other Western blots, 200,000 cells were allowed to adhere overnight in a 6-well plate. After HAMLET treatment the cells were washed with PBS and lysed in M-PER lysis buffer (Pierce) containing Complete protease inhibitor cocktail and PhosSTOP phosphatase inhibitor cocktail (both from Roche). The detached cells were collected by centrifugation. The lysates were cleared by centrifugation and protein concentrations were measured using the DC Protein Assay (Bio-Rad Laboratories, Hercules, Calif.). Equal amounts of protein were separated by SDS-PAGE on 4-12% Bis-Tris gels (Invitrogen) and blotted onto PVDF membranes (GE Healthcare). Membranes were saturated with BSA (GAPDH) or nonfat dry milk (phospho-p38, p38, phospho-ERK1/2, ERK1/2) and incubated with anti-p38, anti-phospho-p38, anti-ERK1/2, anti-phospho-(Thr202/Tyr204)-p44/42 (all 1:500-1000, Cell Signaling Technology), anti-ATF6 (1:1000, IMG-273, Imgenex), anti-phospho-eIF2α (Ser51), (1:500, Cell Signaling Technology) or anti-GAPDH (1:3000-5000, Novus Biologicals) antibodies followed by horseradish peroxidase-conjugated anti-rabbit (1:1000, DakoCytomation, Glostrup, Denmark) or anti-mouse (1:40000-50000, Novus Biologicals) antibodies for staining. Bound antibodies were detected with ECL Plus Western Blotting Reagent (GE Healthcare, Little Chalfont, UK) and GelDoc equipment (Bio-Rad Laboratories, Hercules, Calif.). If required, membranes were stripped with Restore Western Blot Stripping Buffer (Pierce, Rockford, Ill.), blocked and reprobed with new antibodies. MAP kinase phosphorylation was analyzed on a Human Phospho-MAPK array (Proteome Profiler Array, R&D Systems) as per the manufacturer's instruction. Band and spot intensities were quantified using ImageJ (Abramoff et al., July 2004, Biophotonics International). Cytokine quantification (IL6, IL8, TNFα) was performed on an […] 1000 immunoassay system (Siemens Diagnostics).
P38 MAPKs are activated by dual phosphorylation on conserved threonine and tyrosine residues by MKK3/6 and when phosphorylated, a wide variety of effector proteins, including MAPKAPK2 kinases, HSP27 chaperones and ATF2 and CHOP transcription factors become active (Cuenda et al., 2007, Biochimica et Biophysica Acta 1773: 1358-1375).

For experiment [4], the system named is A549 lung carcinoma cells. As to the kind of experiment: cell death assay (trypan blue exclusion, ATP levels). Particulars: 24 hours, control cells without inhibitor or pretreated with inhibitor.
[5] abbreviates: Example 5, Affymetrix U219, adjusted p-value <0.05 and log 2-foldchange of 1.

On to `NC(N)=NC(=O)c1nc(Cl)c(N)nc1N` [amiloride, 3,5-diamino-6-chloro-N-(diaminomethylene)pyrazine-2-carboxamide], for which the “effect of channel blocker on first, EGTA insensitive Ca^2+ peak in response to HAMLET” value in experiment [1] (HAMLET 35 μM) is “inhibited”. Moreover, in experiment [2], the “effect of inhibitor alone on transcription” value is “no significant effect on transcription”. Further, the “number of differentially expressed genes in response to HAMLET in cells pretreated with inhibitor” value in experiment [2] (HAMLET 21 μM, one hour) came out at 52 genes. In experiment [3], the “effect of ion channel inhibitor on suppression of p-ERK1/2 phosphorylation by HAMLET” value is reported as “reversed” and the “effect of ion channel inhibitor on HAMLET-induced p38 phosphorylation” value is reported as “inhibited”. The “cells died after HAMLET” value in experiment [4] is on record as 8%.
Consider `CCCCCCCC/C=C\CCCCCCCC(=O)[O-].[Na+]` [oleate, sodium oleate], for which the “number of differentially expressed genes” value in experiment [2] (setting [5]) is on record as 426 genes. Moreover, the “global transcriptional response (heatmap, top 3000 genes by variance)” value in experiment [2] (FIG. 7B) is “very similar transcriptional response”. The “phosphorylation of p38” value in experiment [3] was “phosphorylation of p38”.
`[Ba+2].[Cl-].[Cl-]` [BaCl2, barium chloride]: in experiment [1] (HAMLET 35 μM), the “effect of channel blocker on first, EGTA insensitive Ca^2+ peak in response to HAMLET” value is “inhibited”. In experiment [3], the “effect of ion channel inhibitor on suppression of p-ERK1/2 phosphorylation by HAMLET” value is recorded as “reversed” and the “effect of ion channel inhibitor on HAMLET-induced p38 phosphorylation” value is “inhibited”. Further, the “cells died after HAMLET” value in experiment [4] is 13%.

B1: HAMLET (protein, UniProt P00709 20-142, looked up)
Alpha-lactalbumin: KQFTKCELSQLLKDIDGYGGIALPELICTMFHTSGYDTQAIVENNESTEYGLFQISNKLWCKSSQVPQSRNICDISCDKFLDDDITDDIMCAKKILDIKGIDYWLAHKALCTEKLEQWLCEKL
modifications: oleic acid complex
Consider B1, for which the “cells involved in Ca^2+ response” value in experiment [1] is “about 50%”. In experiment [1] (HAMLET 35 μM), the “increase in intracellular Ca^2+ levels relative to ionophore” value is listed as 31 % of the ionophore; the “intracellular Ca^2+ response” value was “rapid, step-wise increase in intracellular Ca^2+”; the “second Ca^2+ peak” value is “about 100 seconds”; the “start of increase in intracellular Ca^2+” value was “about 30 seconds”. The “number of differentially expressed genes” value in experiment [2] (setting [5]) turned out to be 336 genes. Further, the “number of differentially expressed genes” value in experiment [2] (HAMLET 21 μM, one hour, no inhibitor, adjusted p-values <0.05, log 2 fold changes >1) came out at 336 genes. Also, the ERK1/2 phosphorylation result in experiment [3] (30 minutes) was “loss of ERK1/2 phosphorylation”. The “p38α and HSP27 phosphorylation” value in experiment [3] (30 minutes, phospho-MAPK antibody arrays) was “phosphorylating p38α and HSP27”. For the same molecule, the “phosphorylation of p38” value in experiment [3] is “dose- and time-dependent”. The “cells died after HAMLET” value in experiment [4] turned out to be 44%.

For the origin of these results see US9487561B2, “Biologically active complex and its preparation” (HAMLET PHARMA AB, priority 2010, dated 2016).
